The target of one test is p38 MAPKα (Homo sapiens (Human), UniProt Q16539). The experiment in a line: p38 MAPKα enzyme inhibition (Z-LYTE FRET, Method 2). The test is classed as biochemical.
Another test deals with c-Src (Homo sapiens (Human), UniProt P12931). The experiment in a line: c-Src enzyme inhibition (Z-LYTE FRET). Format: biochemical. The procedure, abridged: (§1)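 2 hr RT enzyme + cpd (added solns 4/0.4/0.04/0.004 μg/mL); + FRET peptide (8 μM soln) + ATP soln (c-Src 800 μM, Syk 60 μM), 1 hr; protease development 1 hr; read donor/acceptor emission ratio.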
c-Src, sequence (P12931 whole entry, looked up): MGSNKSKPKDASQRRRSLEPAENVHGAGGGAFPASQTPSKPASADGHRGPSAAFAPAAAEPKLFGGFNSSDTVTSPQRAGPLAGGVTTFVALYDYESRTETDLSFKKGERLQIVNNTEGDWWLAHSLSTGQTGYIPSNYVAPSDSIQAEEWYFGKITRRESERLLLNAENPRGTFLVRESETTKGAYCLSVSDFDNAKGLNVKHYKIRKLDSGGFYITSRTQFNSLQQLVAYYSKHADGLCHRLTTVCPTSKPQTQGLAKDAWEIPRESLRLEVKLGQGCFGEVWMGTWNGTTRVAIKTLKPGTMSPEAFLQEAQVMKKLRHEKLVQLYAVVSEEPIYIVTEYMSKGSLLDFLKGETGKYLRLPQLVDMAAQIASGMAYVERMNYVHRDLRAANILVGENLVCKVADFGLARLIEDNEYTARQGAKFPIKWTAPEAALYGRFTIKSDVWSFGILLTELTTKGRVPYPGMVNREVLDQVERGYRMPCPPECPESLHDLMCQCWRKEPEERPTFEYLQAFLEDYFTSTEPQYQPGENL
Another test addresses Syk (Homo sapiens (Human), UniProt P43405). As to the kind of experiment: Syk enzyme inhibition (Z-LYTE FRET). The test is classed as biochemical. The procedure, abridged:
as §1

The target in the next test is GSK3α (Homo sapiens (Human), UniProt P49840). As to the kind of experiment: GSK 3α enzyme inhibition (Z-LYTE FRET, Method 2). Format: biochemical. In a few lines:
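Z-LYTE FRET: GSK3α preincubated with compound 2 h at RT, then FRET peptide and ATP added (stocks 8 μM and 40 μM) for 1 h, followed by 1 h protease development. Compound stocks 4–0.004 μg/mL; phosphorylation from coumarin/fluorescein emission ratio.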

The next test has as its system d-U937 cells. The experiment in a line: LPS-induced TNFα/IL-8 release in d-U937 cells. The test is classed as cell-based. The settings on record: Homo sapiens.
For test [1], the system named is PBMCs. As to the kind of experiment: LPS-induced TNFα/IL-8 release in PBMC cells. Format: cell-based. The following applies: Homo sapiens, read-out: IC50 Values for Inhibition of Cytokine Release PBMCs IL-8. The procedure, abridged:
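TNFα and IL-8 in supernatants were measured by sandwich ELISA after 24 h of 1 ng/mL LPS (E. coli O111:B4) at 37 °C, 5% CO2. Test compounds were added 2 h before LPS to PBMCs from healthy subjects, separated on a density gradient.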

Test [2] deals with PBMCs. As to the kind of experiment: IL-2 and IFN gamma release in CD3/CD28 stimulated PBMC cells. The settings on record: Homo sapiens. Format: cell-based. In a few lines: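 They were cultured with compound for 3 days. IL-2 and IFN-γ in supernatants were quantified by sandwich ELISA, and IC50 was derived from the dose-response curve.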
For a further test, the system named is HT29 cells. The experiment in a line: IL-1β-induced IL-8 release in HT29 cells. The test is classed as cell-based. The settings on record: Homo sapiens, HT-29, read-out: IC50 Values for Inhibition of Cytokine Release HT29 cells IL-8. The method, then: HT29 cells, a human colon adenocarcinoma cell line, are plated in a 96 well plate (24 hrs) and pre-treated with compounds at the desired concentration for 2 hours before addition of 5 ng/mL of IL-1β (Abcam) for 24 hours. Supernatants are harvested for IL-8 quantification by Sandwich ELISA (Duo-set, R&D System). The IC50 is determined from the dose response curve.

The test system of test [3] is intestinal mucosa biopsies from the inflamed regions of the colon. The experiment in a line: Human biopsy assay (intestinal mucosa biopsies of ulcerative colitis patients). The test is classed as cell-based. The settings on record: 24 hours. As for the experimental part: Intestinal mucosa biopsies are obtained from the inflamed regions of the colon of IBD patients. […] DMSO control or test compounds at the desired concentration are added to the tissue and incubated for 24 hr in the organ culture chamber. The supernatant is harvested for determination of IL-6, IL-8, IL-1β and TNFα levels by R&D ELISA.

In a further test the test system is TNBS-induced colitis. The settings on record: for LP inflammation / Ulcer grade: oral gavage BID, conducted over 2 days, mice.
Where [4] appears, read: 1 μg/ml, biopsies of UC patients, DMSO control = 100%.
The mark [5] stands for this setting: dosed orally at either 1 or 5 mg/kg.

The values that follow come from US9732063B2, “Kinase inhibitors” (RESPIVERT LIMITED, priority 2012, dated 2017).

Read-outs that look alike come from different tables or passages of the source.

p38 MAPKα, sequence (Q16539 whole entry): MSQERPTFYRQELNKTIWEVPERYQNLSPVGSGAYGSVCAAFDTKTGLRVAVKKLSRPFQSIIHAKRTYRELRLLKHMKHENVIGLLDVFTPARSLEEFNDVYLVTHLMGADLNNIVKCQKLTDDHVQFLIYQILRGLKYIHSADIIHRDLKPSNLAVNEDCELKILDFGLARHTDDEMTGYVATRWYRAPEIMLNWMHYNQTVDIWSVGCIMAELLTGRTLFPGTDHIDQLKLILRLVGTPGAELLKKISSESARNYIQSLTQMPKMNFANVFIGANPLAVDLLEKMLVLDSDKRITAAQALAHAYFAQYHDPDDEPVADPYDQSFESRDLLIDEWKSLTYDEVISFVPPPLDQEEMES
GSK3α, sequence (P49840 whole entry): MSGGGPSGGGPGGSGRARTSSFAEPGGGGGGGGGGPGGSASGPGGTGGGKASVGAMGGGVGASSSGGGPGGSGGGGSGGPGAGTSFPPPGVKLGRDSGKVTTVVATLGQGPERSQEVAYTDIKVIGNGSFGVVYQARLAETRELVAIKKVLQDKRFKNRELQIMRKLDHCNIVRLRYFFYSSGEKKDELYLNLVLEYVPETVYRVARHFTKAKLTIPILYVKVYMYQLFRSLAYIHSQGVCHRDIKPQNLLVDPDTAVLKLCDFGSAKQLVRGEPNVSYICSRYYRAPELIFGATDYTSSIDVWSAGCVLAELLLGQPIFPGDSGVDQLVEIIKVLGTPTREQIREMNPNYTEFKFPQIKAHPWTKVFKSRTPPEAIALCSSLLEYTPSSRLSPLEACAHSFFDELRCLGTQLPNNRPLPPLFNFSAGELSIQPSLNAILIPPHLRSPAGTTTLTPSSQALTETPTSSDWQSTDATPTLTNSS
Procedure for TNBS-induced colitis: On Day 0 of the study TNBS (200 μL) is administered intra-colonically via a plastic catheter followed by BID dosing of the vehicle, reference or test compound for 2 or 4 days. During the study animals are weighed every day and stool observations are made and recorded as a score, based on stool consistency. At the time of sacrifice on Day 2 (or Day 4) the large intestine is removed and the length and weight recorded. Sections of the colon are taken for either MPO analysis to determine neutrophil infiltration or for histopathology involving scoring to determine disease severity.

As usually defined, the IC50 is the point on the concentration scale where inhibition reaches its midpoint. For the compound `COCCOCCOCCOCCOCCOCCOCCOc1cc(Nc2nccc(Oc3ccc(NC(=O)Nc4cc(C(C)(C)C)nn4-c4ccc(C)cc4)c4ccccc34)n2)cc(OC)c1` [Example 51, 1-(4-((2-((3-(2,5,8,11,14,17,20-Heptaoxadocosan-22-yloxy)-5-methoxyphenyl)amino)pyrimidin-4-yl)oxy)naphthalen-1-yl)-3-(3-(tert-butyl)-1-(p-tolyl)-1H-pyrazol-5-yl)urea], the IC50 against p38 MAPKα was determined as 53 nM; on c-Src, 10 nM; at Syk, 18 nM; at GSK3α, 1330 nM; in the test with d-U937 cells (dU937, read-out: IC50 Values for Inhibition of Cytokine Release dU937 cells IL-8) it was 0.4 nM; with d-U937 cells (dU937, read-out: IC50 Values for Inhibition of Cytokine Release dU937 cells TNFα) it was 0.3 nM. Further, the IC50 in the test on PBMCs [1] came to 1.9 nM; in the test on PBMCs [2] (read-out: IC50 Values for Inhibition of Cytokine Release PBMCs IFNγ) it was 1.8 nM; in the test with PBMCs [2] (read-out: IC50 Values for Inhibition of Cytokine Release PBMCs IL-2) it was 40.7 nM; in the test on HT29 cells, 1.6 nM. For the same compound, the “cytokine (IL-1β, IL-6 and IL-8) release compared to the DMSO control” value in test [3] (1 μg/mL, biopsies from ulcerative colitis patients) is reported as “significantly inhibited”. The same compound returned an IL-1β release in test [3] (setting [4]) of 4 ± 2%. For the same compound, in test [3] (setting [4]), the IL-6 release is reported as 12 ± 15%. The compound also gave an IL-8 release in test [3] (setting [4]) of 2 ± 1%. Also, the LP inflammation was found to be 3.1 ± 0.4 in the test on TNBS-induced colitis (1 mg/kg) and 2.3 ± 0.4 in the test with TNBS-induced colitis (5 mg/kg). The Ulcer grade with TNBS-induced colitis (1 mg/kg) is reported as 2.8 ± 0.5; in the test on TNBS-induced colitis (5 mg/kg), 2.6 ± 0.5. In addition, the “inflammatory cell infiltrate in the reticular and laminar propria zone” value in the test on TNBS-induced colitis (setting [5]) is given as “marked reduction”. In addition, the “ulcer grade and epithelial repair compared to the vehicle control” value in the test on TNBS-induced colitis (setting [5]) is “marked improvements”.
